test system: LN229HRE-luc/lacZ cells (VEGF HRE, HIF-1 target); test: Inhibition of hypoxia-inducible gene expression driven by HRE-reporter construct (firefly luciferase) in glioma cells; assay type: cell-based; details: Homo sapiens, Glioma cell; firefly luciferase activity in LN229HRE-luc/LacZ cells, 1 hour pretreatment under normoxia, then hypoxia (1% O2); from dose-response curves
Description: Inhibition of Hypoxia-Inducible Gene Expression Driven by Exogenous HRE-Reporter Constructs in Glioma Cells
LN229HRE-luc/lacZ cells were generated by stably transfecting human LN229 glioma cells with a bidirectional reporter construct (pBIGL-V6R) in which the firefly luciferase and LacZ reporter genes are under the control of 6 head to tail tandem copies of the VEGF HRE (hypoxia-responsive element—endogenous HIF-1 target gene) in rightward orientation (clone LN229V6R#18; Hygro selection […]) as reported in Yin et al. Clinical Cancer Research, 2012, 1-11.
Cells were pretreated with different doses of test compounds or 1% DMSO (final concentration in media) vehicle control for 1 hour under normoxia (21% O2); then incubation continued under normoxia or hypoxia (1% O2) using a hypoxia incubator (Thermo Forma model 3130). Firefly luciferase activities in lysates of LN229HRE-luc/LacZ cells were measured with a Dual-Luciferase Reporter Assay System (Promega) in a 20/20 n Luminometer (Promega). The IC50 (μM) value for each individual compound was established from the dose-response curves.

SMILES | IC50 [µM]
COc1ccc(C(O)c2cccc(COC3CCN(C(=O)OC(C)(C)C)CC3)c2)c(OC)c1 (stereo not shown) [6c] | 0.55
COc1ccc(C(O)c2ccc(OCCC3CCN(C(=O)OC(C)(C)C)CC3)cc2C)cc1OC (stereo not shown) [35e, Tert-butyl 4-(2-(4-((3,4-dimethoxyphenyl)(hydroxy)methyl)-3-methylphenoxy)ethyl)piperidine-1-carboxylate] | 0.27
COc1ccc(C(=O)c2cccc(COC3CCN(C(=O)OC(C)(C)C)CC3)c2)cc1OC [36f] | > 5
CCCCOCc1cccc(C(O)c2ccc(OC)c(OCCCC)c2)c1 (stereo not shown) [6o] | 1
COc1ccc(C(O)c2ccc3c(c2)C=CC(C)(C)O3)cc1OC (stereo not shown) [26a] | 0.6
COc1ccc(C(O)c2ccc(OC(C)C)cn2)cc1OC (stereo not shown) [15c] | > 5
COc1ccc(C(O)c2ccc3c(c2)CCO3)cc1OC (stereo not shown) [29a] | > 5
COc1cccc(C(O)c2ccc3c(c2)C=CC(C)(C)O3)c1 (stereo not shown) [26b] | > 5
CCCCOCc1ccc(C(O)c2ccc(OC)cc2OC)cc1 (stereo not shown) [3j] | 0.63
CCCCOCc1cccc(C(O)c2ccc(OCc3ccccc3)c(OCC)c2)c1 (stereo not shown) [6p] | 0.62
CCCOCc1ccc(C(O)c2ccc(OC)c(OCCC)c2)cc1 (stereo not shown) [3v] | 5
COc1ccc(C(O)c2ccc3cc(OC(C)C)ccc3c2)cc1OC (stereo not shown) [32d] | 2.62
COc1ccc(C(O)c2ccc3c(c2)OCCO3)cc1OC (stereo not shown) [29d] | 4.18
CCCCOCc1ccc(C(O)c2ccc(OC)c(OC)c2)cc1 (stereo not shown) [3i, (4-(Butoxymethyl)phenyl)(3,4-dimethoxyphenyl)methanol] | 0.5
COc1ccc(C(O)c2ccc(COC3CCCCC3)cc2)c(OC)c1 (stereo not shown) [3h] | 0.68
CCCCCOc1ccc(C(O)c2ccc(OC)c(OC)c2)cc1 (stereo not shown) [14b] | 1.9
OC(c1ccccc1)c1cccc(COc2cccc3ccccc23)c1 (stereo not shown) [6d] | > 5
CCCCCOc1ccc(C(O)c2ccc(OC)c(OC)c2)c(F)c1 (stereo not shown) [35b] | 1.3
COc1ccc(C(O)c2ccc(OC)c(OC)c2)cc1OC [24b] | > 5
CCCCOc1ccc(C(O)c2ccc(OC)c(OC)c2)nc1 (stereo not shown) [15a] | > 5
COc1ccc(C(O)c2ccc(-c3ccccc3)cc2)cc1OC (stereo not shown) [24f] | > 5
COc1ccc(C(O)c2ccc(CN3CCN(C(=O)OC(C)(C)C)CC3)cc2)cc1OC (stereo not shown) [21b] | 1.49
COc1ccc(C(O)c2ccc(COC3CCCCC3)cc2)cc1OC (stereo not shown) [3g] | 0.4
CCCOCc1ccc(C(O)c2ccc(OCc3ccccc3)c(OCC)c2)cc1 (stereo not shown) [3w] | > 5
CCCCCCOc1ccc2cc(C(O)c3ccc(OC)c(OC)c3)ccc2c1 (stereo not shown) [32a] | 1.8

SMILES | IC50 [µM]
COc1ccc(C(O)c2ccc3sc(C)cc3c2)cc1OC (stereo not shown) [29e] | 1.03
CCCOCc1ccc(C(O)c2ccc(OC)c(OC)c2)cc1 (stereo not shown) [3m] | 0.3
COc1ccc(C(O)c2ccc(COC(C)C)cc2)cc1OC (stereo not shown) [3n] | > 5
CCOCc1ccc(C(O)c2ccc(OC)c(OC)c2)cc1 (stereo not shown) [3k] | > 5
CCCCOCc1cccc(C(O)c2ccc(OC)c(OCc3ccccc3)c2)c1 (stereo not shown) [6l] | 2.98
COc1ccc(C(=O)c2ccc(C[C@H]3CCOC3)cc2)cc1OC [36c] | > 5
CCCCOCc1ccc(C(O)c2cccc(OCc3ccccc3)c2)cc1 (stereo not shown) [3q] | > 5
COc1ccc(C(O)c2ccc3c(n2)CCC(C)(C)O3)cc1OC (stereo not shown) [27d] | 2.3
CCCCOc1ccc2cc(C(O)c3ccc(OC)c(OC)c3)ccc2c1 (stereo not shown) [32c] | 3.33
COc1ccc(C(O)c2ccc(CO[C@H]3CCOC3)cc2)cc1OC (stereo partly drawn) [3a, (3,4-Dimethoxyphenyl)(4-((((S)-tetrahydrofuran-3-yl)oxy)methyl)phenyl)methanol] | 0.3
CCCOCc1ccc(C(O)c2ccc(OC)c(OCOC)c2)cc1 (stereo not shown) [3u] | > 5
COc1ccc(C(=O)c2ccc(N3CCOCC3)cc2)cc1OC [36d] | > 5
CCCCOCc1ccccc1C(O)c1ccc(OC)c(OCc2ccccc2)c1 (stereo not shown) [9b] | > 5
COc1ccc(OC)c(C(O)c2ccc(OC)c(OC)c2)c1 (stereo not shown) [24c] | > 5
COc1ccc(C(O)c2ccccc2)cc1OC (stereo not shown) [24a] | 2.2
COc1ccc(C(O)c2ccc(OC3CCOC3)cc2OC)cc1OC (stereo not shown) [35a] | 4.2
C=CCOc1ccc(C(O)c2ccc(OC)c(OC)c2)cc1 (stereo not shown) [14a] | > 5
CCCCOCc1cccc(C(O)c2ccc(OC)cc2)c1 (stereo not shown) [6g] | > 5
COc1ccc(C(O)c2ccc(COc3cccnc3)cn2)cc1OC (stereo not shown) [3e] | > 5
COc1ccc(C(O)c2ccc(CO[C@@H]3CCN(C(=O)OC(C)(C)C)C3)cc2)cc1OC (stereo partly shown) [3t] | > 5
COc1ccc(C(O)c2ccc(CN3CCOCC3)cn2)cc1OC (stereo not shown) [21a] | > 5
CCCCOCc1cccc(C(O)c2ccc(OC)c(OC)c2)c1 (stereo not shown) [6j] | 2.45
CCCOCc1ccccc1C(O)c1ccc(OC)c(OC)c1 (stereo not shown) [9a] | > 5
COc1ccc(C(O)c2ccc(CBr)cc2)cc1OC (stereo not shown) [21c] | 1
COc1cc(C(O)c2ccc(OCCC3CCN(C(=O)OC(C)(C)C)CC3)cc2C)cc(OC)c1OC (stereo not shown) [35g, Tert-butyl 4-(2-(4-(hydroxy(3,4,5-trimethoxyphenyl)methyl)-3-methylphenoxy)ethyl)piperidine-1-carboxylate] | 0.27

SMILES | IC50 [µM]
COc1ccc(C(O)c2ccc(CO[C@@H]3CCOC3)cc2)cc1OC (stereo partly shown) [3b] | 3.4
CCOCc1cccc(C(O)c2ccc(OC)cc2)c1 (stereo not shown) [6f] | > 5
COc1ccc(C(O)c2ccc3sc(C)cc3c2)c(OC)c1 (stereo not shown) [29f] | > 5
COc1ccc(C(O)c2ccc(OCCC3CCN(C(=O)OC(C)(C)C)CC3)cc2)cc1OC (stereo not shown) [14c] | 0.33
CCCCOCc1cccc(C(O)c2cccc(OCc3ccccc3)c2)c1 (stereo not shown) [6m] | > 5
CCCCCOc1ccc(C(O)c2ccc(OC)c(OC)c2)c(C)c1 (stereo not shown) [35c] | 0.43
COc1ccc(C(O)c2ccc3c(c2)OCCN3C)cc1OC (stereo not shown) [29b] | > 5
COc1ccc(C(O)c2ccc(OCc3cnco3)cn2)cc1OC (stereo not shown) [14d] | > 5
COc1ccc(C(=O)c2ccc(COC3CCN(C(=O)OC(C)(C)C)CC3)cc2)cc1OC [36g] | 4.5
CCCOc1ccc2cc(C(O)c3ccc(OC)c(OC)c3)ccc2c1 (stereo not shown) [32b] | 2.95
CCCCOc1cccc(C(O)c2cccc(COCCC)c2)c1 (stereo not shown) [6k] | 3.8
COc1ccc(C(O)c2ccc(C3CCCO3)cc2)cc1OC (stereo not shown) [24e] | 5
CCCOCc1cccc(C(O)c2ccc(OC)cc2OC)c1 (stereo not shown) [6i] | 5
COc1ccc([C@H](O)c2ccc(COC3CCOC3)cc2)cc1OC (stereo partly shown) [3f] | > 5
COc1ccc(C(O)c2cccc(COc3cccc4ccccc34)c2)cc1OC (stereo not shown) [6e] | 1.83
COc1ccc(C(=O)c2ccc3c(n2)C=CC(C)(C)O3)cc1OC [36h] | > 5
CCCCOCc1cccc(C(O)c2cccc(OCCCC)c2)c1 (stereo not shown) [9d] | > 5
COc1ccc(C(O)c2ccc(OCC3CCN(C(=O)OC(C)(C)C)CC3)cc2C)cc1OC (stereo not shown) [35d] | 0.33
COc1ccc(C(O)c2ccc(COC3CN(C(=O)OC(C)(C)C)C3)cc2)cc1OC (stereo not shown) [3s] | > 5
COc1ccc(C(O)c2ccc(CO[C@H]3CCOC3)cn2)cc1OC (stereo partly shown) [3d] | > 5
CCCCOCc1cccc(C(O)c2ccc(OC)c(OCOC)c2)c1 (stereo not shown) [6n] | 0.75
COc1ccc(C(O)c2cc3c(c(OC)c2)OC(C)(C)C=C3)cc1OC (stereo not shown) [26c] | 3.1
COc1ccc(C(O)c2cc3c(c(OC)c2)OC(C)(C)CC3)cc1OC (stereo not shown) [27c] | 4.2
